In PMC6929706, “In vivo alpha-V beta-3 integrin expression in human aortic atherosclerosis” (Heart, 2019):
Like-named read-outs stand apart in the source and are kept apart here. Blank lines part the entries; values can stand above or below the substance they belong to.

What was measured:
[1] = biological target: T1, αvβ3 integrin receptors (Homo sapiens, UniProt P05106+P06756); assay: 18F-fluciclatide autoradiography of carotid endarterectomy sections; assay type: binding
T1 construct: from tissue; host or cells: human carotid endarterectomy specimens (frozen sections)
Description: Carotid endarterectomy specimens (online supplementary data) were fresh frozen and sectioned in cryosection medium. Both atheromatous and non-atheromatous segments were fixed, stained with H&E and examined by immunohistochemistry for smooth muscle actin, CD31, CD68 and αvβ3 integrin receptor expression before digital image capture (Axioscan .Z1, Zeiss, UK). Image analysis was performed on ImageJ32 software (National Institutes of Health, Bethesda, Maryland, USA). Staining was expressed as a percentage of the total plaque area and with an object size set threshold applied at 20×10 pixels, to limit counting to cell-sized objects. The density of cell staining in the endarterectomy tissue was expressed as cells per mm^2.[18]
Autoradiography was performed to identify the precise localisation of 18F-fluciclatide binding in atherosclerotic tissue. Carotid sections were bathed in a solution of 18F-fluciclatide (1 kBq/mL) for 60 min and rinsed with phosphate buffer solution. To rule out non-specific radiotracer uptake, an un-labelled highly concentrated solution of fluciclatide was added to bind competitively with the αvβ3 integrin receptors. 18F-Fluciclatide binding was imaged using a FujiFilm FLA-5100 Fluorescent Image Analyser (Raytek Scientific, Sheffield, UK). […]
antibody, clone LM609 (Millipore) for 30 min at room temperature. After washing, the sections were incubated with Envision Flex (DAKO, K5007) for 30 min at room temperature, followed by incubation with diaminobenzamine (Sigma) for 10 min. The slides were finally counterstained with hematoxylin and digitally imaged (Axioscan.Z1, Zeiss, UK).
Clinical PET systems have limited resolution. To gain more detailed information about the precise localization of 18F-fluciclatide binding in atherosclerotic tissue, we undertook autoradiography. The 20 μm frozen sections adjacent to those used for immunohistochemical analysis were warmed to room-temperature and bathed in a solution of 18F-fluciclatide at a concentration close to in vivo imaging concentrations (1 kBq/mL) for 60 minutes and then rinsed with phosphate buffer solution. An unlabeled highly concentrated solution of fluciclatide was added to selected slides in order to competitively bind to αvβ3 to assess for non-specific tracer uptake. A freshly blanked phosphor screen was then placed over the slides and an overnight exposure undertaken. The screen was read using a FujiFilm FLA-5100 Fluorescent Image Analyser (Raytek Scientific Limited, Sheffield, UK). Sections were then manually registered and examined for co-localization with histological markers of atherosclerotic disease

[2] = biological target: aortic atheroma (αvβ3 integrin) (Homo sapiens, UniProt P05106+P06756)
Description: (§1) All patients in the imaging cohort underwent PET-CT imaging of the thorax with a hybrid scanner (Biograph mCT, Siemens Medical Systems, Erlangen, Germany) at the Clinical Research Imaging Centre, University of Edinburgh. Subjects were administered a target dose of 230 MBq 18F-fluciclatide. An attenuation correction CT scan (non-enhanced 120 kV and 50 mA, 3 mm slices) was performed prior to PET acquisition. To define tracer pharmacodynamics and the optimum timing of scanning, dynamic PET imaging of the thorax was performed in the initial 20 patients in three-dimensional (3-D) mode using a single bed position for 70 min.
Kinetic analysis was performed on the dynamic PET studies to investigate the pharmacodynamics of 18F-fluciclatide uptake within atheroma. […] In all patients, static electrocardiogram-gated PET images were reconstructed in diastole (40–70 min postinjection, 50%–75% of the R-R interval, Ultra-HD, 2 iterations, 21 subsets, zoom ×2, 200 pixels). Images were analysed by experienced observers blinded to the demographic data (WJ, AV) using an OsiriX workstation (OsiriX V.6.0 64-bit; OsiriX Imaging Software, Geneva, Switzerland). PET images were fused with the attenuation correction CT, and regions of interest drawn around the thoracic aorta on serial axial slices just beyond the discernible adventitial border. Aortic uptake was assessed in three regions: the ascending thoracic aorta (from the level of mid-right pulmonary artery up to the last slice where the aorta maintained its circular cross-sectional appearance), the descending thoracic aorta (the region extending from the tip of the diaphragm up to the last circular slice) and the aortic arch (the region of the aorta connecting the ascending and descending aorta). Within these regions, mean and maximum tracer activities were measured using standard uptake values (SUV; the decay corrected tissue concentration of the tracer divided by the injected dose per body weight, kBq/mL) and corrected for mean radiotracer blood pool activity to provide a mean of the TBRmax (mean TBRmax).[5 19 20] […]

[3] = parameters: species or system human; details: in vivo
From the text: A total of 46 subjects underwent PET imaging with CT angiography (age 66±10 years, 74% male; table 1) following injection of 229 (IQR 217–237) […] 18F-fluciclatide. Of the 46 subjects recruited, 19 had suffered a recent MI (unstable cohort), and 27 had imaging evidence of aortic atherosclerosis on CT but no recent cardiovascular events (stable cohort: 6 with stable angina and 21 with subclinical disease who were asymptomatic with no prior cardiovascular events). […] The groups were well matched for gender (p=0.97) and body mass index (p=0.39), and were both characterised by high prevalence of atherosclerotic risk factors, with more smokers in the unstable group (p<0.001) and more patients with hypertension in the stable group (p=0.02).

[4] = biological target: αvβ3 integrin in thoracic aortic atheroma (Homo sapiens, UniProt P05106+P06756)
Chain of αvβ3 integrin in thoracic aortic atheroma (P06756 31-889 limits assumed): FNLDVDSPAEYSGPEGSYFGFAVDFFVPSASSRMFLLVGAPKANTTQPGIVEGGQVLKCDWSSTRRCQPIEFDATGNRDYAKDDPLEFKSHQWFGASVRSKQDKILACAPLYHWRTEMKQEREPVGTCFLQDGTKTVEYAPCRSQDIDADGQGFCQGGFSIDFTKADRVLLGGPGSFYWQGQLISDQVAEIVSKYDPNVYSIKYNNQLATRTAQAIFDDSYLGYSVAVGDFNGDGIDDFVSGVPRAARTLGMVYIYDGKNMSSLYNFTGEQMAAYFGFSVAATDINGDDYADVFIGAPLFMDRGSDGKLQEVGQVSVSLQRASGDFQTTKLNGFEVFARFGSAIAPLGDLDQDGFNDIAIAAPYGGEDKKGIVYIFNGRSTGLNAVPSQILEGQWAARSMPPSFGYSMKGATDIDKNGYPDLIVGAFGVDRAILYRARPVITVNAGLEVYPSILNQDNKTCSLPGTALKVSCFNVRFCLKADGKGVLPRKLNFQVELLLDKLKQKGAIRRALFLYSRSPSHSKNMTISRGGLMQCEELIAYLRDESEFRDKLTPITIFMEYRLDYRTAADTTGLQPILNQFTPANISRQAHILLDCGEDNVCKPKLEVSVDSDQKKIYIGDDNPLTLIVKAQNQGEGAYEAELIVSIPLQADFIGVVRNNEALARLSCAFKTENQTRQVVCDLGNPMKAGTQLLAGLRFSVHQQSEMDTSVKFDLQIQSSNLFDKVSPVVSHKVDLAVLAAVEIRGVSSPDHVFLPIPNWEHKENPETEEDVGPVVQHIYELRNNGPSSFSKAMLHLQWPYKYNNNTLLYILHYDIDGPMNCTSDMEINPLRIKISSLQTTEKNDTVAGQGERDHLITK
Chain of αvβ3 integrin in thoracic aortic atheroma (P06756 891-1048 partner limits assumed): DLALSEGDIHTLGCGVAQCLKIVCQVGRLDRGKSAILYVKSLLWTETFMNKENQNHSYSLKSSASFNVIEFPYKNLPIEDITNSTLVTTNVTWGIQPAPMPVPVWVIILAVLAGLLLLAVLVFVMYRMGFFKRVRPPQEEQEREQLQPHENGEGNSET
Chain of αvβ3 integrin in thoracic aortic atheroma (P05106 27-788): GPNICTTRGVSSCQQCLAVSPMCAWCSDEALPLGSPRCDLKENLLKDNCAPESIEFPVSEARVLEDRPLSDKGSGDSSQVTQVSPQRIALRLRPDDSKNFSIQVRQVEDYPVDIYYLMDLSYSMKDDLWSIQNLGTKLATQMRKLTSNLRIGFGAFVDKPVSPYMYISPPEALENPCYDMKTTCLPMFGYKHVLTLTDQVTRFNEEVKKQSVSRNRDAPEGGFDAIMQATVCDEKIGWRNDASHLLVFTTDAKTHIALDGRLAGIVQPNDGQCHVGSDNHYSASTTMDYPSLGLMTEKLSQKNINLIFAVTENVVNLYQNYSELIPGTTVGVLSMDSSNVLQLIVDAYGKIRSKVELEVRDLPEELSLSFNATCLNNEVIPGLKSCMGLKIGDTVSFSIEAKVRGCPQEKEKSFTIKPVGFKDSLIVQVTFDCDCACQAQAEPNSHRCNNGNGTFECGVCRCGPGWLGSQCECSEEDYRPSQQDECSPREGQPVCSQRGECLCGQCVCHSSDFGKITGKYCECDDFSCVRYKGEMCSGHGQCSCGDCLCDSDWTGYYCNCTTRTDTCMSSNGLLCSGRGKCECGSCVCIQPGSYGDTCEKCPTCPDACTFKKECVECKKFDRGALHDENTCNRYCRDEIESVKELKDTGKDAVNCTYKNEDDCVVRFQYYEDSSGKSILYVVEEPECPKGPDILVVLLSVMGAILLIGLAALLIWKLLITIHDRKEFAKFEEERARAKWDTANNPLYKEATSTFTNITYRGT
Description: as §1
Kinetic analysis was performed on the dynamic PET studies to investigate the pharmacodynamics of 18F-fluciclatide uptake within atheroma. […] In all patients, static electrocardiogram-gated PET images were reconstructed in diastole (40–70 min postinjection, 50%–75% of the R-R interval, Ultra-HD, 2 iterations, 21 subsets, zoom ×2, 200 pixels). […] PET images were fused with the attenuation correction CT, and regions of interest drawn around the thoracic aorta on serial axial slices just beyond the discernible adventitial border. Aortic uptake was assessed in three regions: the ascending thoracic aorta (from the level of mid-right pulmonary artery up to the last slice where the aorta maintained its circular cross-sectional appearance), the descending thoracic aorta (the region extending from the tip of the diaphragm up to the last circular slice) and the aortic arch (the region of the aorta connecting the ascending and descending aorta). Within these regions, mean and maximum tracer activities were measured using standard uptake values (SUV; the decay corrected tissue concentration of the tracer divided by the injected dose per body weight, kBq/mL) and corrected for mean radiotracer blood pool activity to provide a mean of the TBRmax (mean TBRmax).[5 19 20] […] In a substudy of 10 randomly selected subjects, images were assessed independently by two experienced observers and the interobserver reproducibility of 18F-fluciclatide SUV and TBR measurements assessed.
Continuous data were tested for normality visually and with the D’Agostino-Pearson omnibus test. Continuous data were presented as median (IQR) and compared using Pearson’s or Spearman’s correlation or Wilcoxon signed-rank test as appropriate.

Chain of aortic atheroma (αvβ3 integrin) (P06756 31-889 limits assumed): as the sequence (P06756 31-889 limits assumed) above
Chain of aortic atheroma (αvβ3 integrin) (P06756 891-1048 partner limits assumed): as the sequence (P06756 891-1048 partner limits assumed) above
Chain of aortic atheroma (αvβ3 integrin) (P05106 27-788): as the sequence (P05106 27-788) above
T1 sequence (P06756 31-889 limits assumed): as the sequence (P06756 31-889 limits assumed) above
T1 sequence (P06756 891-1048 partner limits assumed): as the sequence (P06756 891-1048 partner limits assumed) above
T1 sequence (P05106 27-788): as the sequence (P05106 27-788) above

Non-specific binding on autoradiography ([1]; carotid atheroma, ex vivo): no evidence of non-specific binding | Nature of ligand-receptor binding by Patlak modelling ([2]; 2-tissue irreversible Patlak model, t* 20 min, over the selected acquisition time): irreversible ligand-receptor binding | Blood pool clearance half-life ([2]; human, in vivo, iv): about 10 min | Time at which activity within aortic atheroma reaches plateau ([2]; in vivo): 40 to 70 min | Average total radiation dose per participant [3]: 15 mSv | TBRmax range in aortic atheroma ([4]; 40–70 min postinjection): 1.08–1.68 | Total aortic uptake (mean TBRmax), current smokers ([4]; All patients, median (IQR)): 1.32 | Total aortic uptake (mean TBRmax), not current smokers ([4]; All patients, median (IQR)): 1.29 (1.19–1.39) | Total aortic uptake (mean TBRmax), with established ischaemic heart disease ([4]; All patients, median (IQR)): 1.34 (1.22–1.42) | Total aortic uptake (mean TBRmax), with hypercholesterolaemia ([4]; All patients, median (IQR)): 1.34 (1.21–1.42) | Total aortic uptake (mean TBRmax), with hypertension ([4]; All patients, median (IQR)): 1.33 (1.19–1.39) | Total aortic uptake (mean TBRmax), without diabetes mellitus ([4]; All patients, median (IQR)): 1.29 (1.19–1.38) | Total aortic uptake (mean TBRmax), without established ischaemic heart disease ([4]; All patients, median (IQR)): 1.25 (1.19–1.35) | Total aortic uptake (mean TBRmax), without hypercholesterolaemia ([4]; All patients, median (IQR)): 1.27 (1.19–1.34) | Total aortic uptake (mean TBRmax), without hypertension ([4]; All patients, median (IQR)): 1.29 (1.20–1.40) | Total aortic uptake (mean TBRmax), with diabetes mellitus ([4]; Stable cohort, median (IQR)): 1.37 (1.28–1.58) | Total aortic uptake (mean TBRmax), with established ischaemic heart disease ([4]; Stable cohort, median (IQR)): 1.37 (1.37–1.42) | Total aortic uptake (mean TBRmax), with hypercholesterolaemia ([4]; Stable cohort, median (IQR)): 1.36 | Total aortic uptake (mean TBRmax), with hypertension ([4]; Stable cohort, median (IQR)): 1.27 (1.21–1.38) | Total aortic uptake (mean TBRmax), without diabetes mellitus ([4]; Stable cohort, median (IQR)): 1.29 (1.19–1.37) | Total aortic uptake (mean TBRmax), without hypertension ([4]; Stable cohort, median (IQR)): 1.33 (1.19–1.38) | Aortic Arch (mean TBRmax) ([4]; Unstable atherosclerosis (n=19, recent MI), median (IQR)): 1.29 | TBRmax on standard analysis, subjects without visible uptake on Patlak analysis ([4]; comparison p=0.08): 1.19±0.03 | TBRmax on standard analysis, subjects with uptake present on Patlak analysis ([4]; n=7): 1.32±0.05
Substance: 18F-fluciclatide
18F-fluciclatide uptake in regions of carotid endarterectomy specimen without visible atheroma ([1]; ex vivo autoradiography, 1 kBq/mL, 60 min): did not demonstrate 18F-fluciclatide uptake | 18F-fluciclatide binding in carotid plaque on autoradiography ([1]; ex vivo carotid sections bathed in 1 kBq/mL for 60 min, atheromatous regions): focal 18F-fluciclatide binding in regions of advanced atherosclerosis | Adverse events following administration [3]: No adverse events were reported

Blocking of 18F-fluciclatide binding by un-labelled fluciclatide ([1]; un-labelled highly concentrated solution added to compete at αvβ3): effectively blocked
Substance: fluciclatide [reference compound]
